In patent publication US7166299B2, “Preparation of aqueous clear solution dosage forms with bile acids” (priority 1998, dated 2007):
Several values for one entry are separate records, joined by “and”; a condition that tells them apart may be missing. Equal values may be shown once.

Assay: Solution stability test (HPLC) of UDCA, branched chained amino acids and maltodextrin solution, Example IV
Format: physicochemical
Protocol: The stability tests were conducted on three different aqueous solution systems: […]. A bile acid and a high molecular weight aqueous soluble starch conversion product were combined in aqueous solution according to Example I, with results as shown in Tables 1A and 1B. • 2. Mixed bile acids and high molecular weight aqueous soluble starch conversion products were combined in aqueous solution according to Example II, with results as shown in Table 2. • 3. Bile acids, high molecular weight aqueous soluble starch conversion products and branched chained amino acids (e.g. leucine, isoleucine, valine, or other amino acid with a branched side chain) were combined in aqueous solution according to Example IV, with results as shown in Tables 3A through 3F. The stability tests were performed with HPLC and microscope light at various pH conditions under the normal and accelerated conditions. Accelerated conditions for testing pharmaceutical compositions have been described (Remington, The Science and Practice of Pharmacy, 19th ed., p. 640). […] Thus, the formulations of the examples are suitable for preparing a commercial liquid dosage form. […] Some formulations remain stable for over 2 years. Moreover, the solution stability tests were conducted on the aqueous solution dosage forms comprising the mixture of aqueous soluble UDCA, branched chained amino acid (leucine, isoleucine, valine) and maltodextrin according to example IV as a typical example of the solution dosage forms in which bile acid as a therapeutically active agent, as an adjuvant or carrier, pharmaceutically active agent, or enhancer of solubility, and high molecular weight aqueous soluble starch conversion products or soluble non-starch polysaccharides are dissolved. According to the test results, there is no discoloration, no clarity changes, and no precipitation. […] In the tables, the concentration of the indicated bile acid salt for each of the three numbered trials and the average thereof is reported on each line. The percentage indicates the relative concentration of the bile acid salt after incubation for a certain amount of time in comparison with the initial concentration. 85 mL of the aqueous solution in which soluble UDCA is dissolved was prepared, and then maltodextrin was added into the clear solution. Into the resulting clear solution, branched amino acids were added with adjusting the pH (4–7) with agitation and then sweetener, preservatives, and flavoring agent were added. Purified water was added to adjust the total volume to be 100 mL. Tables 3A to 3F show stability test results over time of formulation prepared with amino acids according to Example IV. All stability tests were conducted at 50° C. Stability test results at pH 1 (Table 3A), pH 3 (Table 3B), pH 5 (Table 3C), pH 7 (Table 3D), pH 9 (Table 3E), and pH 10 (Table 3F) are shown.

## CC(C)[C@H](N)C(=O)O [Val, valine]
Table 3C: pH 5, 50° C., day 13
  concentration by HPLC, trials #1-#3: 0.464 and 0.451 and 0.474
Table 3C: pH 5, 50° C., day 17
  Percentage of day 0 concentration: 93.0%
  concentration by HPLC, Average: 0.453
  concentration by HPLC, trials #1-#3: 0.407 and 0.491 and 0.462
Table 3C: pH 5, 50° C., day 20
  Percentage of day 0 concentration: 99.9%
  concentration by HPLC, Average: 0.487
  concentration by HPLC, trials #1-#3: 0.471 and 0.512 and 0.477
Table 3C: pH 5, 50° C., day 24
  Percentage of day 0 concentration: 96.1%
  concentration by HPLC, Average: 0.468
  concentration by HPLC, trials #1-#3: 0.471 and 0.476 and 0.458
Table 3D: pH 7, 50° C., day 0
  Percentage of day 0 concentration: 100.0%
  concentration by HPLC, Average: 0.513
  concentration by HPLC, trials #1-#3: 0.483 and 0.530 and 0.525
Table 3D: pH 7, 50° C., day 5
  Percentage of day 0 concentration: 94.1%
  concentration by HPLC, Average: 0.483
  concentration by HPLC, trials #1-#3: 0.502 and 0.447 and 0.499
Table 3D: pH 7, 50° C., day 8
  Percentage of day 0 concentration: 96.2%
  concentration by HPLC, Average: 0.493
  concentration by HPLC, trials #1-#3: 0.488 and 0.498 and 0.493
Table 3D: pH 7, 50° C., day 12
  Percentage of day 0 concentration: 91.2%
  concentration by HPLC, Average: 0.467
  concentration by HPLC, trials #1-#3: 0.490 and 0.469 and 0.443
Table 3D: pH 7, 50° C., day 15
  Percentage of day 0 concentration: 95.9%
  concentration by HPLC, Average: 0.492
  concentration by HPLC, trials #1-#3: 0.492 and 0.541 and 0.442
Table 3D: pH 7, 50° C., day 19
  Percentage of day 0 concentration: 93.6%
  concentration by HPLC, Average: 0.480
  concentration by HPLC, trials #1-#3: 0.458 and 0.500 and 0.482
Table 3E: pH 9, 50° C., day 0
  Percentage of day 0 concentration: 100.0%
  concentration by HPLC, Average: 0.489
  concentration by HPLC, trials #1-#3: 0.508 and 0.476 and 0.484
Table 3E: pH 9, 50° C., day 3
  Percentage of day 0 concentration: 97.8%
  concentration by HPLC, Average: 0.478
  concentration by HPLC, trials #1-#3: 0.463 and 0.487 and 0.485
Table 3E: pH 9, 50° C., day 6
  Percentage of day 0 concentration: 99.5%
  concentration by HPLC, Average: 0.487
  concentration by HPLC, trials #1-#3: 0.493 and 0.473 and 0.495
Table 3E: pH 9, 50° C., day 10
  Percentage of day 0 concentration: 91.3%
  concentration by HPLC, Average: 0.447
  concentration by HPLC, trials #1-#3: 0.441 and 0.428 and 0.471
Table 3E: pH 9, 50° C., day 13
  Percentage of day 0 concentration: 101.3%
  concentration by HPLC, Average: 0.496
  concentration by HPLC, trials #1-#3: 0.467 and 0.483 and 0.537
Table 3E: pH 9, 50° C., day 17
  Percentage of day 0 concentration: 101.8%
  concentration by HPLC, Average: 0.498
  concentration by HPLC, trials #1-#3: 0.499
Table 3F: pH 10, 50° C., day 0
  Percentage of day 0 concentration: 100.0%
  concentration by HPLC, Average: 0.486
Table 3F: pH 10, 50° C., day 2
  Percentage of day 0 concentration: 104.2%
  concentration by HPLC, Average: 0.506
Table 3F: pH 10, 50° C., day 5
  Percentage of day 0 concentration: 83.5%
  concentration by HPLC, Average: 0.405
Table 3F: pH 10, 50° C., day 7
  Percentage of day 0 concentration: 81.8%
  concentration by HPLC, Average: 0.397
Table 3F: pH 10, 50° C., day 9
  Percentage of day 0 concentration: 75.8%
  concentration by HPLC, Average: 0.368
